Here are results for two molecules from patent publication US20250059179A1, “Heterocyclic Compounds and Methods of Use” (AMGEN INC., priority 2021, published 2025).

SMILES strings stand for the structures.

The target of test [1] is His-tagged KRAS G12D protein (Homo sapiens, UniProt P01116, G12D). As to the kind of experiment: KRAS G12D TR-FRET Assay.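 Further: europium anti-His antibody paired with streptavidin-d2 as FRET partners, initial 30 min incubation, then peptide 1 h and detection reagents 1 h, all at room temperature.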 It is filed as binding. Particulars: biotinylated KRPep-2d substrate, 10 μM GDP. In general terms: TR-FRET usually uses a lanthanide donor and a delayed reading to cut background.
His-tagged KRAS G12D protein, sequence (P01116 1-188 isoform P01116-2 G12D): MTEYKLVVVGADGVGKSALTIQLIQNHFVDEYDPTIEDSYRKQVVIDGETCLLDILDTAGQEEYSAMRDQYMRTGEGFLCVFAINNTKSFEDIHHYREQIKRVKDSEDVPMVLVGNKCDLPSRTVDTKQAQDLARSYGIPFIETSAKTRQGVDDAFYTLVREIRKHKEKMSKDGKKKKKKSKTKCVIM
For test [2], the target named is GDP-bound KRAS protein (aa 1-169), containing both G12D and C118A amino acid substitutions (Homo sapiens, UniProt P01116, C118A/G12D). The test is described as follows: KRAS G12D Coupled Nucleotide Exchange Assay.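 Further: IC50 obtained by fitting the AlphaScreen signal with a four-parameter logistic curve.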 It counts as biochemical. The settings on record: 2 h compound pre-incubation; SOS-mediated nucleotide exchange, cRAF AlphaScreen readout. Background: Alpha assays give light when donor and acceptor beads are brought close together.
GDP-bound KRAS protein (aa 1-169), containing both G12D and C118A amino acid substitutions, sequence (P01116 1-169 isoform P01116-2 G12D/C118A): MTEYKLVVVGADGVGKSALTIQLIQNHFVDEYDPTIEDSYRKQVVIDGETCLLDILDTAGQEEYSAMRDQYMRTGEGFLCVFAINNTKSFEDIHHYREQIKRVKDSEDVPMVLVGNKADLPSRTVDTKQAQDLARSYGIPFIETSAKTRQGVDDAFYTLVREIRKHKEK

Test [3] deals with Phosphorylation of ERK1/2 in A-427 cells. The test is described as follows: Phospho-ERK1/2 MSD Assay. The settings on record: Homo sapiens, A-427, 2 h, 2 h compound treatment, read-out: pERK (A427 cells) IC50. It is filed as cell-based. In short, it runs like this: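 ERK1/2 phosphorylation measured by Meso Scale whole-cell lysate assay after A-427 cells were exposed to a titration of compound for 2 h at 37 °C.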

With `N#Cc1c(OCC23CCCN2C[C@H](F)C3)nc2c(F)c(-c3ccc(F)c4sc(N)nc34)c(Cl)cc2c1N1[C@@H]2CC[C@H]1CNC2` (stereo partly drawn) [Example 159, 7-(2-amino-7-fluorobenzo[d]thiazol-4-yl)-4-((1R,5S)-3,8-diazabicyclo[3.2.1]octan-8-yl)-6-chloro-8-fluoro-2-(((2R)-2-fluorotetrahydro-1H-pyrrolizin-7a(5H)-yl)methoxy)quinoline-3-carbonitrile], the results for the IC50 in test [1] and in test [3] were 174 nM and more than 10000 nM, respectively. For the same molecule, the “Avg 2 h Coupled Exchange IC50” value in test [2] came to 88 nM.

For `Nc1nc2c(-c3c(Cl)cc4c(N5C[C@H]6CC[C@@H](C5)N6)cc(OC[C@@]56CCCN5C[C@H](F)C6)nc4c3F)ccc(F)c2s1` [Example 161, 4-(4-((1R,5S)-3,8-Diazabicyclo[3.2.1]octan-3-yl)-6-chloro-8-fluoro-2-(((2R,7aS)-2-fluorotetrahydro-1H-pyrrolizin-7a(5H)-yl)methoxy)quinolin-7-yl)-7-fluorobenzo[d]thiazol-2-amine], the IC50 – broadly, the concentration needed to halve the response being measured – stood at 57 nM in test [1] and 5790 nM in test [3]. Further, the “Avg 2 h Coupled Exchange IC50” value in test [2] was 24 nM.
